Reference: publication PMC11794977, “Inhibitory Potential and Binding Thermodynamics of Scyllatoxin‐Based BH3 Domain Mimetics Targeting Repressor BCL2 Proteins” (Journal of Molecular Recognition, 2025)
Where a SMILES comes first, the peptide text is derived from it.

Tests used:
Bcl‐2‐ΔTM [1] = target: Bcl‐2‐ΔTM (UniProt P10415); assay: FP competitive binding assay; settings: fluorescence polarization; 100 nM Bcl‐2‐ΔTM and 25 nM ^FluBax‐BH3^ΔB pre-incubated 1 h, competitor 100 μM to 2.3 pM, further 1 h, ambient temperature; binding buffer 50 mM Tris, 100 mM NaCl, pH 8.0; triplicate; read-out: IC50 (competition with ^FluBax‐BH3^ΔB for Bcl‐2‐ΔTM)
Sequence of Bcl‐2‐ΔTM (P10415 whole entry, stated change not applied): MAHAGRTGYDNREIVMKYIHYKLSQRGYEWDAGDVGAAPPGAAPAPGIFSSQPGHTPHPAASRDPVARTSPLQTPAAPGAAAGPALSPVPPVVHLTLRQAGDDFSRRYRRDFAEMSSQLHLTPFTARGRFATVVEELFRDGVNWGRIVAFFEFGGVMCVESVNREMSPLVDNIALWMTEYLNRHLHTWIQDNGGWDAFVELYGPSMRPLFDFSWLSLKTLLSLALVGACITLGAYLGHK
Experimental: FP competitive binding assays were performed in triplicate on black 384‐well plates (#3575, Corning, Corning, NY) using a SpectraMax M5e multi‐mode plate reader (Molecular Devices, Sunnyvale, CA). For these experiments, 100 nM Bcl‐2‐ΔTM and 25 nM ^FluBax‐BH3^ΔB were initially co‐incubated for 1 h in binding buffer at ambient temperature in the dark. Following pre‐incubation, serial dilutions of acetylated peptides (100 μM to 2.3 pM) were added, and the solutions were allowed to incubate for an additional 1 h at ambient temperature in the dark. This incubation time was deemed sufficient for binding reactions to reach equilibrium, as judged by an absence of change in the observed polarization value of the sample with the lowest protein concentration over 4 h (data not shown). Following incubation, the fluorescence polarization of each sample was measured using an excitation wavelength of 498 nm and an emission wavelength of 525 nm. An average of 100 reads were recorded for each well. […]

Bcl‐2‐ΔTM [2] = target: Bcl‐2‐ΔTM (UniProt P10415); assay: Isothermal titration calorimetry (ITC); type: binding; settings: 25°C; for n (number of sites): 20 μM Bcl‐2‐ΔTM in cell, 200 μM peptide injected; for n (number of sites) / TΔS / ΔH: binding buffer pH 8.0, ± SD, SD; for ΔG: binding buffer pH 8.0, calculated as ΔH − TΔS
Experimental: All ITC experiments were performed in triplicate using a MicroCal 200 ITC instrument (Malvern Panalytical) at 25°C. To initiate ITC experiments, the sample cell was filled with 250 μL of binding buffer supplemented with 20 μM Bcl‐2‐ΔTM. Acetylated peptides were then diluted to a final concentration of 200 μM in binding buffer and injected into the sample cell at 2 μL volumes using a 6 s injection time and a 150 s delay between each injection. Data analysis was performed using MicroCal Origin software v7.0. Non‐linear curves were fit using Equation (3) adapted from the instrument manual: (3) ΔQ=nMtΔHVo/21+Xt/nMt+1/nKaMt−1+Xt/nMt+1/nKaMt^2−4Xt/nMt where, ΔQ is the heat content released or absorbed by each injection. ΔH is the enthalpy change of ligand binding and M t is bulk concentration of Bcl‐2‐ΔTM. V o is the cell volume of Bcl‐2‐ΔTM and K a is the affinity constant. X t is bulk concentration of peptide and n is the number of sites occupied by the peptide. Dissociation constants (K d) for all peptides were calculated by taking the reciprocal of the K a .
ΔG values were calculated from the Gibbs free energy Equation (4) using Origin‐fitted values of ΔH and program‐calculated values of ΔS. (4) ΔG=ΔΗ−ΤΔS

Compound	IC50 (Bcl‐2‐ΔTM [1])	n (number of sites) (Bcl‐2‐ΔTM [2]; 3 trials)	ΔG (Bcl‐2‐ΔTM [2]; ± SD, 3 trials)	Kd (Bcl‐2‐ΔTM [2]; binding buffer pH 8.0, reciprocal of K a, ± SD, 3 trials)	TΔS (Bcl‐2‐ΔTM [2]; 3 trials)	ΔH (Bcl‐2‐ΔTM [2]; 3 trials)	difference in ΔG, complex more stable than that of ^AcScTx‐Bax^ΔΔΔ (Bcl‐2‐ΔTM [2]; versus ^AcScTx‐Bax^ΔΔΔ)	enthalpic contribution less favorable than with ^AcBax‐BH3^ΔB (Bcl‐2‐ΔTM [2]; versus ^AcBax‐BH3^ΔB)	difference in ΔG, binds more favorably than ^AcScTx‐Bax^ΔΔ,8–26 (Bcl‐2‐ΔTM [2]; versus ^AcScTx‐Bax^ΔΔ,8–26)
CC[C@H](NC(=O)[C@H](CCC(=O)O)NC(=O)[C@H](CO)NC(=O)[C@H](CC(C)C)NC(=O)[C@H](CCCCN)NC(=O)[C@H](CCCCN)NC(=O)[C@@H](NC(=O)[C@H](CO)NC(=O)CNC(C)=O)[C@@H](C)O)C(=O)N[C@@H](CC(C)C)C(=O)N[C@@H](CCCCN)C(=O)N[C@@H](CCCNC(=N)N)C(=O)N[C@H](C(=O)NCC(=O)N[C@@H](CC(=O)O)C(=O)N[C@@H](CCC(=O)O)C(=O)N[C@@H](CC(C)C)C(=O)N[C@@H](CC(=O)O)C(=O)N[C@@H](CO)C(=O)N[C@@H](CC(N)=O)C(=O)N[C@@H](CCSC)C(N)=O)[C@@H](C)CC [^AcBax‐BH3^ΔB, reference compound] (HELM PEPTIDE1{[ac].G.S.T.K.K.L.S.E.[Abu].L.K.R.I.G.D.E.L.D.S.N.M.[am]}$$$$V2.0)	0.141 µM	0.93 ± 0.05	-10.02 ± 0.89 kcal/mol	0.191 ± 0.0275 µM	4.58 ± 0.20 kcal/mol	-5.43 ± 0.73 kcal/mol	1.53 kcal/mol	–	–
CC[C@H](NC(=O)[C@H](CO)NC(=O)CNC(C)=O)C(=O)N[C@@H](CCCCN)C(=O)N[C@@H](CCCCN)C(=O)N[C@@H](CC(C)C)C(=O)N[C@@H](CO)C(=O)N[C@H]1CSSC[C@@H](C(=O)N[C@@H](CCC(=O)O)C(=O)N[C@@H](CC)C(=O)N[C@H](C(=O)N[C@@H](CCCCN)C(=O)N[C@@H](Cc2c[nH]cn2)C(N)=O)C(C)C)NC(=O)[C@H](CCCCN)NC(=O)[C@H](CC(=O)O)NC(=O)CNC(=O)[C@H]([C@@H](C)CC)NC(=O)[C@H](CC)NC(=O)[C@H](CCCCN)NC(=O)CNC(=O)[C@H](CC(C)C)NC(=O)[C@H](CC(C)C)NC(=O)CNC(=O)[C@H](CC(=O)O)NC(=O)CNC(=O)[C@H]([C@@H](C)CC)NC(=O)[C@H](CC)NC(=O)[C@H](CCCCN)NC(=O)[C@H](CC(C)C)NC(=O)[C@H](CC)NC1=O [^AcScTx‐Bax^ΔΔ,8–26] (HELM PEPTIDE1{[ac].G.S.[Abu].K.K.L.S.C.[Abu].L.K.[Abu].I.G.D.G.L.L.G.K.[Abu].I.G.D.K.C.E.[Abu].V.K.H.[am]}$PEPTIDE1,PEPTIDE1,9:R3-27:R3$$$V2.0)	–	1.13 ± 0.08	-7.51 ± 0.12 kcal/mol	–	1.63 ± 0.03 kcal/mol	-5.88 ± 0.15 kcal/mol	–	–	–
CC[C@H](NC(=O)[C@H](CO)NC(=O)CNC(C)=O)C(=O)N[C@@H](CCCCN)C(=O)N[C@@H](CCCCN)C(=O)N[C@@H](CC(C)C)C(=O)N[C@@H](CO)C(=O)N[C@@H](CC)C(=O)N[C@@H](CC)C(=O)N[C@@H](CC(C)C)C(=O)N[C@@H](CCCCN)C(=O)N[C@@H](CC)C(=O)N[C@H](C(=O)NCC(=O)N[C@@H](CC(=O)O)C(=O)NCC(=O)N[C@@H](CC(C)C)C(=O)N[C@@H](CC(C)C)C(=O)NCC(=O)N[C@@H](CCCCN)C(=O)N[C@@H](CC)C(=O)N[C@H](C(=O)NCC(=O)N[C@@H](CC(=O)O)C(=O)N[C@@H](CCCCN)C(=O)N[C@@H](CC)C(=O)N[C@@H](CCC(=O)O)C(=O)N[C@@H](CC)C(=O)N[C@H](C(=O)N[C@@H](CCCCN)C(=O)N[C@@H](Cc1c[nH]cn1)C(N)=O)C(C)C)[C@@H](C)CC)[C@@H](C)CC [^AcScTx‐Bax^ΔΔΔ] (HELM PEPTIDE1{[ac].G.S.[Abu].K.K.L.S.[Abu].[Abu].L.K.[Abu].I.G.D.G.L.L.G.K.[Abu].I.G.D.K.[Abu].E.[Abu].V.K.H.[am]}$$$$V2.0)	–	0.90 ± 0.09	-8.49 ± 0.33 kcal/mol	–	4.64 ± 0.11 kcal/mol	-3.85 ± 0.33 kcal/mol	–	1.58 kcal/mol	~1 kcal/mol
